{"source": "ChEMBL document CHEMBL5506061", "about": "“Chb-M', an Inhibitor of the RUNX Family Binding to DNA, Induces Apoptosis in p53-Mutated Non-Small Cell Lung Cancer and Inhibits Tumor Growth and Repopulation In Vivo” (J Med Chem, 2024)", "key": {"[1]": {"tested_on": "BJ", "test": "Cytotoxicity against human BJ cells assessed as cell viability at 0.3 to 3 uM incubated for 72 hrs by SF - cell counting reagent based colorimetric assay", "format": "toxicity", "conditions": "dose 0.3-3 µM"}, "[2]": {"tested_on": "NCI-H2228-Luc", "test": "Anticancer activity against p53-mutated human NCI-H2228-Luc cells assessed as cell viability at 0.3 to 3 uM incubated for 72 hrs by SF - cell counting reagent based colorimetric assay", "format": "functional", "conditions": "dose 0.3-3 µM"}, "[3]": {"tested_on": "NCI-H2228-Luc", "test": "In vivo antitumor activity against human NCI-H2228-Luc cells xenografted in CB17.Cg.Prkdc-scid Lystbg-j/CrlCrlj mouse assessed as prolonged reduction in tumor volume (cancer free) at 25 mg/kg, po administered every day (35 administration in total) measured after 15 days of last dose", "format": "functional, organism-based", "conditions": "time 50.0 day"}, "[4]": {"tested_on": "NCI-H2228-Luc", "test": "In vivo antitumor activity against human NCI-H2228-Luc cells xenografted in CB17.Cg.Prkdc-scid Lystbg-j/CrlCrlj mouse assessed as reduction in tumor volume at 25 mg/kg, po administered every day (35 administration in total)", "format": "functional, organism-based", "conditions": "time 35.0 day"}, "[5]": {"tested_on": "NCI-H2228-Luc", "test": "In vivo antitumor activity against human NCI-H2228-Luc cells xenografted in CB17.Cg.Prkdc-scid Lystbg-j/CrlCrlj mouse assessed as prolonged reduction in tumor volume at 25 mg/kg, po administered every day (35 administration in total) measured after 70 days of last dose", "format": "functional, organism-based", "conditions": "time 70.0 day"}, "[6]": {"tested_on": "NCI-H2228-Luc", "test": "In vivo antitumor activity against human NCI-H2228-Luc cells xenografted in CB17.Cg.Prkdc-scid Lystbg-j/CrlCrlj mouse assessed as prolonged reduction in tumor volume at 25 mg/kg, po administered every day (35 administration in total) measured after 77 days of last dose", "format": "functional, organism-based", "conditions": "time 77.0 day"}, "[7]": {"tested_on": "NCI-H2228-Luc", "test": "In vivo antitumor activity against human NCI-H2228-Luc cells xenografted in CB17.Cg.Prkdc-scid Lystbg-j/CrlCrlj mouse assessed as prolonged reduction in tumor volume (cancer free) at 25 mg/kg, po administered every day (35 administration in total) measured after 8 days of last dose", "format": "functional, organism-based", "conditions": "time 43.0 day"}, "[8]": {"tested_on": "NCI-H2228-Luc", "test": "Induction of apoptosis in p53-mutated human NCI-H2228-Luc cells assessed as late apoptotic cells at 0.3 to 3 uM incubated for 72 hrs by Annexin V-FITC and propidium iodide (PI) staining based flow cytometric analysis", "format": "functional, cell-based", "conditions": "dose 0.3-3 µM"}, "[9]": {"tested_on": "NCI-H2228-Luc", "test": "Anticancer activity against p53-mutated human NCI-H2228-Luc cells assessed as cell viability incubated for 72 hrs by SF - cell counting reagent based colorimetric assay", "format": "functional", "conditions": "dose 0.3-3 µM"}, "[10]": {"tested_on": "NCI-H2228-Luc", "test": "In vivo antitumor activity against human NCI-H2228-Luc cells xenografted in CB17.Cg.Prkdc-scid Lystbg-j/CrlCrlj mouse assessed as reduction in tumor volume at 5 mg/kg, iv (tail vein) administered twice a week (10 injections in total) measured after 3 days", "format": "functional, organism-based", "conditions": "time 38.0 day"}, "[11]": {"test": "Hematological toxicity in CB17.Cg.Prkdc-scid Lystbg-j/CrlCrlj mouse xenografted with human NCI-H2228-Luc cells assessed as change in peripheral blood cell count at 320 microg/kg, iv for 3 months", "format": "organism-based", "conditions": "in vivo, 0.32 mg/kg, 2190 h, dose 320 µg/kg"}, "[12]": {"tested_on": "NCI-H2228-Luc", "test": "Induction of RUNX3 mRNA level in human NCI-H2228-Luc cells at 0.3 to 3 uM incubated for 24 hrs by RT-qPCR analysis", "format": "functional, cell-based", "conditions": "dose 0.3-3 µM"}, "[13]": {"tested_on": "NCI-H2228-Luc", "test": "Induction of apoptosis in p53-mutated human NCI-H2228-Luc cells assessed as increase in TAp73 mRNA expression incubated for 24 hrs by RT-qPCR analysis", "format": "functional, cell-based"}, "[14]": {"tested_on": "NCI-H2228-Luc", "test": "In vivo antitumor activity against human NCI-H2228-Luc cells xenografted in CB17.Cg.Prkdc-scid Lystbg-j/CrlCrlj mouse assessed as prolonged reduction in tumor volume at 5 mg/kg, iv (tail vein) administered twice a week (10 injections in total) measured after 35 days of last dose relative to alectinib and ceritinib", "format": "functional, organism-based", "conditions": "time 70.0 day"}, "[15]": {"tested_on": "NCI-H2228-Luc", "test": "Induction of RUNX1 mRNA level in human NCI-H2228-Luc cells at 0.3 to 3 uM incubated for 24 hrs by RT-qPCR analysis", "format": "functional, cell-based", "conditions": "dose 0.3-3 µM"}, "[16]": {"test": "Hematological toxicity in CB17.Cg.Prkdc-scid Lystbg-j/CrlCrlj mouse xenografted with human NCI-H2228-Luc cells assessed as decrease in platelets at 10 mg/kg, iv (tail vein) administered twice a week (10 injections in total) measured after 3 days", "format": "organism-based", "conditions": "in vivo, 912 h, time 38 day"}, "[17]": {"tested_on": "NCI-H2228-Luc", "test": "Induction of apoptosis in p53-mutated human NCI-H2228-Luc cells assessed as decrease in BCL11A mRNA expression at 0.3 to 1 uM incubated for 24 hrs by RT-qPCR analysis", "format": "functional, cell-based", "conditions": "dose 0.3-1 µM"}, "[18]": {"tested_on": "NCI-H2228-Luc", "test": "Induction of apoptosis in p53-mutated human NCI-H2228-Luc cells assessed as early apoptotic cells at 0.3 to 3 uM incubated for 72 hrs by Annexin V-FITC and propidium iodide (PI) staining based flow cytometric analysis", "format": "functional, cell-based", "conditions": "dose 0.3-3 µM"}, "[19]": {"test": "Hematological toxicity in wild type mouse C-kit positive fraction of bone marrow cells assessed as decrease in colony forming capacity at 10 uM", "format": "cell-based", "conditions": "bone marrow cell"}, "[20]": {"tested_on": "NCI-H2228-Luc", "test": "Induction of RUNX2 mRNA level in human NCI-H2228-Luc cells at 0.3 to 3 uM incubated for 24 hrs by RT-qPCR analysis", "format": "functional, cell-based", "conditions": "dose 0.3-3 µM"}, "[21]": {"test": "Toxicity in CB17.Cg.Prkdc-scid Lystbg-j/CrlCrlj mouse xenografted with human NCI-H2228-Luc cells assessed as change in body weight at 5 mg/kg, iv (tail vein) administered twice a week (10 injections in total) measured after 3 days", "format": "organism-based", "conditions": "in vivo, 912 h, time 38 day"}}, "note": "Activity calls are given as the source filed them. The calls are words filed in the database; no cut-off is given here.", "data": [{"smiles": "CN(C)CCCNC(=O)c1cc(NC(=O)c2cc(NC(=O)c3cc(NC(=O)c4cc(NC(=O)CCCNC(=O)c5nc(NC(=O)c6nc(NC(=O)c7cc(NC(=O)c8nc(NC(=O)CCNC(=O)CCCc9ccc(N(CCO)CCO)cc9)cn8C)cn7C)cn6C)cn5C)cn4C)cn3C)cn2C)cn1C", "values": [{"measurement": "Activity", "setting": "[1]", "value": "Non-Toxic"}, {"measurement": "Activity", "setting": "[2]", "value": "inactive"}]}, {"smiles": "Cc1cc(Nc2ncc(Cl)c(Nc3ccccc3S(=O)(=O)C(C)C)n2)c(OC(C)C)cc1C1CCNCC1", "values": [{"measurement": "Activity", "setting": "[3]", "value": "Active"}, {"measurement": "Activity", "setting": "[4]", "value": "Active"}, {"measurement": "Activity", "setting": "[5]", "value": "inactive"}]}, {"smiles": "CCc1cc2c(cc1N1CCC(N3CCOCC3)CC1)C(C)(C)c1[nH]c3cc(C#N)ccc3c1C2=O", "values": [{"measurement": "Activity", "setting": "[4]", "value": "Active"}, {"measurement": "Activity", "setting": "[6]", "value": "inactive"}, {"measurement": "Activity", "setting": "[7]", "value": "Active"}]}, {"smiles": "O=C(O)CCCc1ccc(N(CCCl)CCCl)cc1", "note": "[CHLORAMBUCIL]", "values": [{"measurement": "Activity", "setting": "[1]", "value": "Non-Toxic"}, {"measurement": "Activity", "setting": "[2]", "value": "inactive"}]}, {"smiles": "CN(C)CCCNC(=O)c1cc(NC(=O)c2cc(NC(=O)c3cc(NC(=O)c4cc(NC(=O)CCCNC(=O)c5nc(NC(=O)c6nc(NC(=O)c7cc(NC(=O)c8nc(NC(=O)CCNC(=O)CCCc9ccc(N(CCCl)CCCl)cc9)cn8C)cn7C)cn6C)cn5C)cn4C)cn3C)cn2C)cn1C", "values": [{"measurement": "Activity", "setting": "[8]", "value": "Active"}, {"measurement": "Activity", "setting": "[9]", "value": "Dose-Dependent Effect"}, {"measurement": "Activity", "setting": "[10]", "value": "Active"}, {"measurement": "Activity", "setting": "[11]", "value": "Non-Toxic"}, {"measurement": "Activity", "setting": "[12]", "value": "Active"}, {"measurement": "Activity", "setting": "[13]", "value": "Dose-Dependent Effect"}, {"measurement": "Activity", "setting": "[1]", "value": "Non-Toxic"}, {"measurement": "Activity", "setting": "[14]", "value": "Active"}, {"measurement": "Activity", "setting": "[15]", "value": "Active"}, {"measurement": "Activity", "setting": "[16]", "value": "Non-Toxic"}, {"measurement": "Activity", "setting": "[17]", "value": "Active"}, {"measurement": "Activity", "setting": "[18]", "value": "Active"}, {"measurement": "Activity", "setting": "[19]", "value": "Non-Toxic"}, {"measurement": "Activity", "setting": "[20]", "value": "Active"}, {"measurement": "Activity", "setting": "[21]", "value": "Non-Toxic"}]}, {"smiles": "CN(C)CCCNC(=O)c1cc(NC(=O)c2cc(NC(=O)c3nc(NC(=O)c4nc(NC(=O)CCCNC(=O)c5cc(NC(=O)c6cc(NC(=O)c7nc(NC(=O)c8nc(NC(=O)CCNC(=O)CCCc9ccc(N(CCCl)CCCl)cc9)cn8C)cn7C)cn6C)cn5C)cn4C)cn3C)cn2C)cn1C", "values": [{"measurement": "Activity", "setting": "[1]", "value": "Non-Toxic"}, {"measurement": "Activity", "setting": "[2]", "value": "inactive"}]}]}
